The source made the active and inactive calls. No cut-off for these calls is given here.
Molecular target: Programmed cell death 1 ligand 1 (Homo sapiens) (UniProt Q9NZQ7)
Assay: Induction of human PD-L1 dimerization at 1:1 molar ratio of protein:compound by 1H NMR analysis

Programmed cell death 1 ligand 1 (Homo sapiens), sequence (Q9NZQ7 whole entry): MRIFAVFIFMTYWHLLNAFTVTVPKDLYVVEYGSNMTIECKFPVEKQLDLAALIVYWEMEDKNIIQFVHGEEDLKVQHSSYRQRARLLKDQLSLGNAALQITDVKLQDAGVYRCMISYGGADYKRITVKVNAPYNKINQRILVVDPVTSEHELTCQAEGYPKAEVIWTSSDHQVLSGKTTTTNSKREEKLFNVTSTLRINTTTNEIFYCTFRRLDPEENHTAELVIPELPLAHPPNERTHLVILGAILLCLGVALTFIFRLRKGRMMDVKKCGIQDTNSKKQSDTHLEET

Structure (SMILES) | Activity
CCNCc1nnnn1/C=C/c1cccc(-c2ccccc2)c1C | Active
Cc1c(/C=C/n2nnnc2C(C)NCCCO)cccc1-c1ccc2c(c1)OCCO2 (stereo unspecified) | Active
Cc1c(/C=C/n2nnnc2CN2CCCOC2)cccc1-c1ccccc1 | Active

Molecular target: Programmed cell death protein 1/Programmed cell death 1 ligand 1 (Homo sapiens, UniProt Q15116+Q9NZQ7)
Sequence (Q15116 whole entry): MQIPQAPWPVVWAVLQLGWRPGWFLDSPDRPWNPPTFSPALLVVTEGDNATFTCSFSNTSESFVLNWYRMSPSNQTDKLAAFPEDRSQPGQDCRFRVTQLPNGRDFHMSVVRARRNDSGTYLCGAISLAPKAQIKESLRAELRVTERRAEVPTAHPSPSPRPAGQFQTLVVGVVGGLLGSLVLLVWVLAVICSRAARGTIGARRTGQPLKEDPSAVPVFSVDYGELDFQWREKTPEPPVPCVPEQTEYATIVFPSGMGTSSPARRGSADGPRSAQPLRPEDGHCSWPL
Sequence (Q9NZQ7 whole entry): as the sequence (Q9NZQ7 whole entry) above
Assay: Antagonist activity at PD-1/PD-L1 interaction (unknown origin)
Type: protein-complex assay

Structure (SMILES) | IC50 [nM]
Cc1c(/C=C/c2cc(CN[C@@H](CO)C(=O)O)ccc2C(F)(F)F)cccc1-c1ccc2c(c1)OCCO2 | 13
COc1cc(/C=C2\CCc3c2cccc3-c2cccc3c2CC/C3=C\c2cc(CN[C@H](CO)C(=O)O)cc(OC)c2)cc(CN[C@@H](CO)C(=O)O)c1 | 2.9
COCCNCc1ccc(C(F)(F)F)c(/C=C/c2cccc(-c3cccc(/C=C/c4cc(CN[C@@](C)(CO)C(=O)O)ccc4C(F)(F)F)c3C)c2Cl)c1 | 2.3

Reference: ChEMBL document CHEMBL5385964, “1,5-Disubstituted tetrazoles as PD-1/PD-L1 antagonists” (RSC Med Chem, 2024)
